Measurements: patent publication US20040010001A1, “Methods and compositions for modulating cell proliferation and cell death” (priority 1999, published 2004)
pIC50: −log10 of the molar value. Read-outs that look alike come from different tables or passages of the source.

How the values were obtained:
[1] = system: Human prostate PC3 tumor cells; experiment: aFGF/bFGF-induced resistance and reversal by suramin, sulforhodamine B assay; format: cell-based
Experimental: The experimental conditions are described briefly below. […] Cell number was measured using the sulforhodamine B assay which measures the total protein concentration. […] The FGF-induced resistance was dependent on the FGF concentrations, with a higher resistance at higher FGF concentrations.

[2] = system: Human prostate PC3 tumor cells; experiment: Drug treatment and extracellular bFGF (ELISA), LDH release, cell number; format: cell-based; conditions: for Extracellular LDH, % of control / Extracellular bFGF, % of control / Extracellular concentration bFGF / bFGF:LDH ratio: 72 hours
Experimental: The experimental conditions are described briefly below. […] The remaining cell number at the end of treatment was counted using a Coulter counter. The extracellular bFGF concentration was measured using ELISA. The release of lactate dehydrogenase (LDH) into the extracellular culture medium is indicative of cell death and gives a measure of the release of cellular content into the culture medium. If the increase in extracellular bFGF level is due to the release of bFGF upon cell death and lysis, the increase in bFGF will be accompanied by an increase in LDH in the same extent. This would result in an higher bFGF level and a constant bFGF-to-LDH ratio. On the other hand, an increase in extracellular bFGF due to an increase in bFGF production and release of bFGF from cells by processes other than cell lysis will result in an higher bFGF level and an higher bFGF-to-LDH ratio.

[3] = Homo sapiens, read-out: IC50, Control (drug treatment only, without FGF treatment), No suramin, drug 96 hours
[4] = Homo sapiens, read-out: IC50, aFGF 0.3 ng/ml + bFGF 1 ng/ml, No suramin, FGF pretreatment 96 hours, drug 96 hours
[5] = Homo sapiens, read-out: IC50, aFGF 1 ng/ml + bFGF 3 ng/ml, No suramin, FGF pretreatment 96 hours, drug 96 hours
[6] = no suramin, relative to control
[7] = read-out: IC50, Control (without FGF treatment), Suramin, 15 μM, drug 96 hours with 15 μM suramin
[8] = read-out: IC50, aFGF 0.3 ng/ml + bFGF 1 ng/ml, With suramin, FGF pretreatment 96 hours, drug 96 hours with 15 micromolar suramin
[9] = read-out: IC50, aFGF 1 ng/ml + bFGF 3 ng/ml, With suramin, FGF pretreatment 96 hours, drug 96 hours with 15 micromolar suramin

CC[C@]1(O)C[C@@H]2CN(CCc3c([nH]c4ccccc34)[C@@](C(=O)OC)(c3cc4c(cc3OC)N(C)[C@H]3[C@@](O)(C(=O)OC)[C@H](OC(C)=O)[C@]5(CC)C=CCN6CC[C@]43[C@@H]65)C2)C1 [Vinblastine]
pIC50 [1, 3]: 9.48
pIC50 [1, 4]: 9.35
pIC50 [1, 5]: 9.11
Resistance, Folds, aFGF 0.3 ng/ml + bFGF 1 ng/ml [1, 6]: 1.36 Folds
Resistance, Folds, aFGF 1 ng/ml + bFGF 3 ng/ml [1, 6]: 2.36 Folds
pIC50 [1, 7]: 9.40
pIC50 [1, 8]: 9.38
pIC50 [1, 9]: 9.46
Remaining cell number at 72 hours (% of control) ([2]; drug concentration 0.5 NM): 74%
Remaining cell number at 72 hours × 10^6 ([2]; drug concentration 0.5 NM): 1.7 × 10^6
Extracellular LDH, % of control ([2]; drug concentration 0.5 NM): 263 % of control
Extracellular bFGF, % of control ([2]; drug concentration 0.5 NM): 675 % of control
Extracellular concentration bFGF ([2]; drug concentration 0.5 NM): 59.1 pg/mL
bFGF:LDH ratio ([2]; drug concentration 0.5 NM): 2.57
Remaining cell number at 72 hours (% of control) ([2]; drug concentration 1 NM): 43%
Remaining cell number at 72 hours × 10^6 ([2]; drug concentration 1 NM): 1.0 × 10^6
Extracellular LDH, % of control ([2]; drug concentration 1 NM): 326 % of control
Extracellular bFGF, % of control ([2]; drug concentration 1 NM): 1073 % of control
Extracellular concentration bFGF ([2]; drug concentration 1 NM): 94.0 pg/mL
bFGF:LDH ratio ([2]; drug concentration 1 NM): 3.29
Remaining cell number at 72 hours (% of control) ([2]; drug concentration 2 NM): 17%
Remaining cell number at 72 hours × 10^6 ([2]; drug concentration 2 NM): 0.4 × 10^6
Extracellular LDH, % of control ([2]; drug concentration 2 NM): 513 % of control
Extracellular bFGF, % of control ([2]; drug concentration 2 NM): 2046 % of control
Extracellular concentration bFGF ([2]; drug concentration 2 NM): 179 pg/mL
bFGF:LDH ratio ([2]; drug concentration 2 NM): 3.99

N.N.[Cl][Pt][Cl] [Cisplatin]
Resistance, Folds, aFGF 0.3 ng/ml + bFGF 1 ng/ml [1, 6]: 1.76 Folds
Resistance, Folds, aFGF 1 ng/ml + bFGF 3 ng/ml [1, 6]: 3.69 Folds
pIC50 ([1]; read-out: IC50, Control (drug treatment only, without FGF treatment), No suramin, drug 96 hours): 5.56
pIC50 [1, 7]: 5.57
pIC50 ([1]; read-out: IC50, aFGF 0.3 ng/ml + bFGF 1 ng/ml, No suramin, FGF pretreatment 96 hours, drug 96 hours): 5.31
pIC50 [1, 8]: 5.51
pIC50 ([1]; read-out: IC50, aFGF 1 ng/ml + bFGF 3 ng/ml, No suramin, FGF pretreatment 96 hours, drug 96 hours): 4.99
pIC50 [1, 9]: 5.52
Remaining cell number at 72 hours (% of control) ([2]; drug concentration 2000 NM): 86%
Remaining cell number at 72 hours × 10^6 ([2]; drug concentration 2000 NM): 1.9 × 10^6
Extracellular LDH, % of control ([2]; drug concentration 2000 NM): 169 % of control
Extracellular bFGF, % of control ([2]; drug concentration 2000 NM): 267 % of control
Extracellular concentration bFGF ([2]; drug concentration 2000 NM): 5.87 pg/mL
bFGF:LDH ratio ([2]; drug concentration 2000 NM): 1.58
Remaining cell number at 72 hours (% of control) ([2]; drug concentration 6000 NM): 45%
Remaining cell number at 72 hours × 10^6 ([2]; drug concentration 6000 NM): 1.0 × 10^6
Extracellular LDH, % of control ([2]; drug concentration 6000 NM): 534 % of control
Extracellular bFGF, % of control ([2]; drug concentration 6000 NM): 1561 % of control
Extracellular concentration bFGF ([2]; drug concentration 6000 NM): 95.9 pg/mL
bFGF:LDH ratio ([2]; drug concentration 6000 NM): 2.92
Remaining cell number at 72 hours (% of control) ([2]; drug concentration 20000 NM): 18%
Remaining cell number at 72 hours × 10^6 ([2]; drug concentration 20000 NM): 0.4 × 10^6
Extracellular LDH, % of control ([2]; drug concentration 20000 NM): 563 % of control
Extracellular bFGF, % of control ([2]; drug concentration 20000 NM): 1641 % of control
Extracellular concentration bFGF ([2]; drug concentration 20000 NM): 101 pg/mL
bFGF:LDH ratio ([2]; drug concentration 20000 NM): 2.88

O=C(O)CC(NC(=O)CP(=O)(O)O)C(=O)O [PALA, N-Phosphoracetyl-L-Asparate]
Resistance, Folds, aFGF 0.3 ng/ml + bFGF 1 ng/ml [1]: 1.06 Folds
Resistance, Folds, aFGF 1 ng/ml + bFGF 3 ng/ml [1]: 1.21 Folds
pIC50 ([1]; Homo sapiens, 96 h, read-out: IC50, Control (drug treatment only, without FGF treatment), No suramin): 3.62
pIC50 ([1]; Homo sapiens, 96 h, read-out: IC50, aFGF 0.3 ng/ml + bFGF 1 ng/ml, No suramin): 3.59
pIC50 ([1]; Homo sapiens, 96 h, read-out: IC50, aFGF 1 ng/ml + bFGF 3 ng/ml, No suramin): 3.54
pIC50 ([1]; read-out: IC50, Control (without FGF treatment), Suramin, 15 μM): 3.60
pIC50 ([1]; read-out: IC50, aFGF 0.3 ng/ml + bFGF 1 ng/ml, With suramin): 3.63
pIC50 ([1]; read-out: IC50, aFGF 1 ng/ml + bFGF 3 ng/ml, With suramin): 3.70

O=C(CCBr)N1CCN(C(=O)CCBr)CC1 [Pipobroman]
pIC50 [1, 3]: 3.87
pIC50 [1, 4]: 3.71
pIC50 [1, 5]: 3.74
Resistance, Folds, aFGF 0.3 ng/ml + bFGF 1 ng/ml [1, 6]: 1.42 Folds
Resistance, Folds, aFGF 1 ng/ml + bFGF 3 ng/ml [1, 6]: 1.35 Folds
pIC50 [1, 7]: 4.03
pIC50 [1, 8]: 3.90
pIC50 [1, 9]: 3.96

COc1cc([C@@H]2c3cc4c(cc3[C@@H](O[C@@H]3O[C@@H]5CO[C@@H](c6cccs6)O[C@H]5[C@H](O)[C@H]3O)[C@H]3COC(=O)[C@H]23)OCO4)cc(OC)c1O [Teniposide]
pIC50 [1, 3]: 6.40
pIC50 [1, 4]: 5.94
pIC50 [1, 5]: 5.70
Resistance, Folds, aFGF 0.3 ng/ml + bFGF 1 ng/ml [1, 6]: 2.85 Folds
Resistance, Folds, aFGF 1 ng/ml + bFGF 3 ng/ml [1, 6]: 4.95 Folds
pIC50 [1, 7]: 6.38
pIC50 [1, 8]: 6.41
pIC50 [1, 9]: 6.44

CC(=O)[C@]1(O)Cc2c(O)c3c(c(O)c2[C@@H](O[C@H]2C[C@H](N)[C@H](O)[C@H](C)O2)C1)C(=O)c1ccccc1C3=O [Idarubicin]
pIC50 [1, 3]: 8.35
pIC50 [1, 4]: 7.93
pIC50 [1, 5]: 7.51
Resistance, Folds, aFGF 0.3 ng/ml + bFGF 1 ng/ml [1, 6]: 2.67 Folds
Resistance, Folds, aFGF 1 ng/ml + bFGF 3 ng/ml [1, 6]: 7.01 Folds
pIC50 [1, 7]: 8.30
pIC50 [1, 9]: 8.37
